Reference: patent US10722520B2, “Heterocyclic compounds and their use in preventing or treating bacterial infections” (MUTABILIS, priority 2016, dated 2020)
Where a name gives a salt, the structure may show the parent alone. Read-outs that look alike come from different tables or passages of the source.

Legend:
E. cloacae P99 = experiment: MIC of compound alone, broth microdilution; type: cell-based; details: Enterobacter cloacae; strain P99; compound alone; read-out: MIC compounds of the invention alone
Method: (§1) Log phase bacterial suspensions were adjusted to a final density of 5×10^5 cfu/mL in cation-adjusted Mueller-Hinton broth (Becton-Dickinson) and added to each well (98 μL). Microplates were incubated for 16-20 h at 35° C. in ambient air. The MIC of the compounds was defined as the lowest concentration of said compounds that prevented bacterial growth as read by visual inspection.

E. coli 190317 = experiment: MIC of compound alone, broth microdilution; type: cell-based; details: Escherichia coli; strain 190317; compound alone; read-out: MIC compounds of the invention alone
Method: as §1

K. pneumoniae 6299 = experiment: MIC of compound alone, broth microdilution; type: cell-based; details: Klebsiella pneumoniae; strain 6299; compound alone; read-out: MIC compounds of the invention alone
Method: as §1

K. pneumoniae BAA-1898 = experiment: MIC of compound alone, broth microdilution; type: cell-based; details: Klebsiella pneumoniae, BAA1898; strain BAA-1898; compound alone; read-out: MIC compounds of the invention alone
Method: as §1

P. aeruginosa CIP107051 = experiment: MIC of compound alone, broth microdilution; type: cell-based; details: Pseudomonas aeruginosa; strain CIP107051; compound alone; read-out: MIC compounds of the invention alone
Method: as §1

CMY-37 = CMY-37 (Citrobacter freundii, UniProt P05193); details: read-out: IC50 β-lactamase CMY-37
AmpC (P99) = AmpC (P99) (Enterobacter cloacae, UniProt P05364); experiment: biochemical
AmpC (PAE) = AmpC (PAE) (Pseudomonas aeruginosa, UniProt P24735); experiment: biochemical
OXA-15 = OXA-15 (Pseudomonas aeruginosa, UniProt Q51574); experiment: biochemical
TEM-1 = TEM-1 (Escherichia coli, UniProt P62593)
SHV-1 = SHV-1 (Klebsiella pneumoniae, UniProt P0AD64)
CTX-M-15 = CTX-M-15 (Escherichia coli, UniProt Q9EXV5)
KPC-2 = KPC-2 (Klebsiella pneumoniae, UniProt Q9F663)
OXA-1 = OXA-1 (Escherichia coli, UniProt P13661)
OXA-11 = OXA-11 (Pseudomonas aeruginosa, UniProt Q06778)
OXA-48 = OXA-48 (Klebsiella pneumoniae, UniProt Q6XEC0)
[1] = class (C), nitrocefin 200 μM, 30-min pre-incubation, enzyme 0.2 nM

Structure (SMILES) | MIC (E. cloacae P99) | MIC (E. coli 190317) | MIC (K. pneumoniae 6299) | MIC (K. pneumoniae BAA-1898) | MIC (P. aeruginosa CIP107051) | IC50 (CMY-37) | IC50 (AmpC (P99)) | IC50 (AmpC (PAE)) | IC50 (OXA-15) | IC50 (TEM-1) | IC50 (SHV-1) | IC50 (CTX-M-15) | IC50 (KPC-2) | IC50 (OXA-1) | IC50 (OXA-11) | IC50 (OXA-48) | IC50 (CMY-37; [1])
Nc1ncc(C(=O)Nc2ccn(C3=CC4CN(C3)C(=O)N4OS(=O)(=O)[O-])n2)s1.[Na+] (stereo not drawn) [Example 13, sodium [3-[3-[(2-aminothiazole-5-carbonyl)amino]pyrazol-1-yl]-7-oxo-1,6-diazabicyclo[3.2.1]oct-3-en-6-yl]sulfate] | > 32 µg/mL | 32 µg/mL | > 32 µg/mL | > 32 µg/mL | > 32 µg/mL | 1.1 nM | 2.6 nM | 8.7 nM | 11 nM | 0.65 nM | 3.2 nM | 0.62 nM | 2.5 nM | 27 nM | 4 nM | 1.9 nM | –
O=C(Nc1ccn(C2=CC3CN(C2)C(=O)N3OS(=O)(=O)O)n1)c1cncs1 (stereo not drawn) [Example 77, [3-[3-[thiazole-5-carbonyl]amino]pyrazol-1-yl]-7-oxo-1,6-diazabicyclo[3.2.1]oct-3-en-6-yl]hydrogen sulfate] | > 32 µg/mL | > 32 µg/mL | > 32 µg/mL | > 32 µg/mL | > 32 µg/mL | – | 11 nM | 58 nM | 46 nM | 1.1 nM | 5.2 nM | 1.5 nM | 11 nM | 140 nM | 16 nM | 7.8 nM | 7.1 nM
NCCc1ccn(C2=CC3CN(C2)C(=O)N3OS(=O)(=O)O)n1 (stereo not drawn) [Example 10, [3-[3-(2-aminoethyl)pyrazol-1-yl]-7-oxo-1,6-diazabicyclo[3.2.1]oct-3-en-6-yl]hydrogen sulfate] | 8 µg/mL | 1 µg/mL | > 32 µg/mL | 16 µg/mL | 32 µg/mL | – | 22 nM | 160 nM | 180 nM | 0.3 nM | 3.2 nM | 1.1 nM | 50 nM | 270 nM | 67 nM | 14 nM | 18 nM
O=C1N2CC(n3nccc3CCO)=CC(C2)N1OS(=O)(=O)[O-].[Na+] (stereo not drawn) [Example 68, sodium [3-[5-(2-hydroxyethyl)pyrazol-1-yl]-7-oxo-1,6-diazabicyclo[3.2.1]oct-3-en-6-yl]sulfate] | > 32 µg/mL | > 32 µg/mL | > 32 µg/mL | > 32 µg/mL | > 32 µg/mL | 130 nM | 170 nM | 430 nM | 4100 nM | 0.73 nM | 2.8 nM | 7.1 nM | 300 nM | 1200 nM | 3900 nM | 49 nM | –
CC(=O)c1ccn(C2=CC3CN(C2)C(=O)N3OS(=O)(=O)[O-])n1.[Na+] (stereo not drawn) [Example 28, sodium (7-oxo-3-(3-acetylpyrazol-1-yl)-1,6-diazabicyclo[3.2.1]oct-3-en-6-yl) sulfate] | > 32 µg/mL | 16 µg/mL | > 32 µg/mL | > 32 µg/mL | > 32 µg/mL | 37 nM | 10 nM | 200 nM | 30 nM | 0.37 nM | 2.2 nM | 0.5 nM | 4.8 nM | 64 nM | 29 nM | 3.8 nM | –
O=C1N2CC(n3ccnc3CO)=CC(C2)N1OS(=O)(=O)[O-].[Na+] (stereo not drawn) [Example 70, sodium [3-[2-(hydroxymethyl)imidazol-1-yl]-7-oxo-1,6-diazabicyclo[3.2.1]oct-3-en-6-yl]sulfate] | > 32 µg/mL | 32 µg/mL | > 32 µg/mL | 32 µg/mL | > 32 µg/mL | 120 nM | 94 nM | 600 nM | 30 nM | 0.63 nM | 2.3 nM | 3.5 nM | 51 nM | 92 nM | 170 nM | 6.2 nM | –
O=C(CCO)Nc1ccn(C2=CC3CN(C2)C(=O)N3OS(=O)(=O)[O-])n1.[Na+] (stereo not drawn) [Example 51, sodium [3-[3-(3-hydroxypropanoylamino)pyrazol-1-yl]-7-oxo-1,6-diazabicyclo[3.2.1]oct-3-en-6-yl]sulfate] | 16 µg/mL | 8 µg/mL | 16 µg/mL | 32 µg/mL | > 32 µg/mL | 6.3 nM | 17 nM | 78 nM | 76 nM | 0.3 nM | 1.9 nM | 0.28 nM | 18 nM | 97 nM | 12 nM | 3.8 nM | –
NCCc1cnn(C2=CC3CN(C2)C(=O)N3OS(=O)(=O)O)c1 (stereo not drawn) [Example 41, [3-[4-(2-aminoethyl)pyrazol-1-yl]-7-oxo-1,6-diazabicyclo[3.2.1]oct-3-en-6-yl]hydrogen sulfate] | 4 µg/mL | 2 µg/mL | > 32 µg/mL | > 32 µg/mL | 32 µg/mL | – | 36 nM | 88 nM | 40 nM | 0.58 nM | 4.5 nM | 0.91 nM | 57 nM | 750 nM | 180 nM | 8.9 nM | 21 nM
O=C(Nc1nccs1)c1ccn(C2=CC3CN(C2)C(=O)N3OS(=O)(=O)[O-])n1.[Na+] (stereo not drawn) [Example 25, sodium [7-oxo-3-[3-(thiazol-2-ylcarbamoyl)pyrazol-1-yl]-1,6-diazabicyclo[3.2.1]oct-3-en-6-yl]sulfate] | > 32 µg/mL | > 32 µg/mL | > 32 µg/mL | > 32 µg/mL | > 32 µg/mL | 9.2 nM | 9.4 nM | 130 nM | 12 nM | 0.29 nM | 1.2 nM | 0.43 nM | 2.5 nM | 37 nM | 4.2 nM | 1.7 nM | –
CC(=NOCCN)c1ccn(C2=CC3CN(C2)C(=O)N3OS(=O)(=O)O)n1 (mixture of isomers) [Example 29, (7-oxo-3-(3-[(Z,E)-N-(2-aminoethoxy)-C-methyl-carbonimidoyl]-pyrazol-1-yl)-1,6-diazabicyclo[3.2.1]oct-3-en-6-yl) hydrogen sulfate] | 32 µg/mL | 8 µg/mL | > 32 µg/mL | 32 µg/mL | > 32 µg/mL | – | 25 nM | 190 nM | 51 nM | 0.21 nM | 1.1 nM | 0.55 nM | 8.7 nM | 150 nM | 31 nM | 3 nM | 35 nM
O=C1N2CC(n3cc(F)cn3)=CC(C2)N1OS(=O)(=O)[O-].[Na+] (stereo not drawn) [Example 14, sodium (7-oxo-3-(4-fluoropyrazol-1-yl)-1,6-diazabicyclo[3.2.1]oct-3-en-6-yl) sulfate] | 16 µg/mL | 4 µg/mL | 16 µg/mL | 8 µg/mL | > 32 µg/mL | 10 nM | 17 nM | 21 nM | 52 nM | 0.87 nM | 4 nM | 1.8 nM | 17 nM | 82 nM | 34 nM | 8.6 nM | –
NC(=O)c1ccn(C2=CC3CN(C2)C(=O)N3OS(=O)(=O)[O-])n1.[Na+] (stereo not drawn) [Example 19, sodium [3-(3-carbamoylpyrazol-1-yl)-7-oxo-1,6-diazabicyclo[3.2.1]oct-3-en-6-yl]sulfate] | 8 µg/mL | 4 µg/mL | 16 µg/mL | 16 µg/mL | > 32 µg/mL | 41 nM | 19 nM | 170 nM | 61 nM | 0.38 nM | 1.8 nM | 0.9 nM | 6.2 nM | 110 nM | 27 nM | 5.2 nM | –
